# According to article PMC11016868 (Computational and Structural Biotechnology Journal, 2024):
# System: M. marinum (NTUH-M6885)
# Assay: Minimum inhibitory concentration, broth microdilution
# Assay type: cell-based
# Details: Mycobacterium marinum, 7H9 broth, 28 °C
row,MIC,Compound
1,2 µg/mL,CO[C@H]1/C=C/O[C@@]2(C)Oc3c(C)c(O)c4c(O)c(c(/C=N/N5CCN(C)CC5)c(O)c4c3C2=O)NC(=O)/C(C)=C\C=C\[C@H](C)[C@H](O)[C@@H](C)[C@@H](O)[C@@H](C)[C@H](OC(C)=O)[C@@H]1C [rifampicin]
2,8 µg/mL,O=C(O)c1cn(C2CC2)c2cc(N3CCNCC3)c(F)cc2c1=O [ciprofloxacin]
